Reference: ChEMBL document CHEMBL3351988, “Synthesis and biological evaluation of novel 6-chloro-quinazolin derivatives as potential antitumor agents” (Eur J Med Chem, 2014)
Structures can show the parent of a compound that is named as a salt. Activity calls are given as the source filed them. The rule behind the calls is not given here.

Key:
[1] = system: Bcap37; assay: Induction of apoptosis in human Bcap37 cells assessed as DNA fragmentation at 10 uM after 12 hrs by TUNEL assay; type: functional, cell-based
[2] = system: MGC-803; assay: Induction of apoptosis in human MGC803 cells at 10 uM after 6 hrs by Annexin V-FITC staining based flow cytometry; type: functional
[3] = system: MGC-803; assay: Induction of apoptosis in human MGC803 cells assessed as DNA fragmentation at 10 uM after 12 hrs by TUNEL assay; type: functional, cell-based
[4] = system: Bcap37; assay: Induction of apoptosis in human Bcap37 cells assessed as late apoptotic cell level at 10 uM after 12 hrs by AO/EB staining based fluorescence microscopy; type: functional
[5] = system: MGC-803; assay: Induction of apoptosis in human MGC803 cells assessed as early apoptotic cell level at 10 uM after 12 hrs by AO/EB staining based fluorescence microscopy; type: functional
[6] = system: Bcap37; assay: Induction of apoptosis in human Bcap37 cells assessed as early apoptotic cell level at 10 uM after 12 hrs by AO/EB staining based fluorescence microscopy; type: functional
[7] = system: MGC-803; assay: Induction of apoptosis in human MGC803 cells assessed as late apoptotic cell level at 10 uM after 12 hrs by AO/EB staining based fluorescence microscopy; type: functional
[8] = system: MGC-803; assay: Induction of apoptosis in human MGC803 cells at 10 uM after 12 hrs by Annexin V-FITC staining based flow cytometry; type: functional
[9] = system: Bcap37; assay: Induction of apoptosis in human Bcap37 cells assessed as condensed chromatin at 10 uM after 12 hrs by Hoechst 33258 staining based fluorescence microscopy; type: functional, cell-based
[10] = system: MGC-803; assay: Induction of apoptosis in human MGC803 cells assessed as condensed chromatin at 10 uM after 12 hrs by Hoechst 33258 staining based fluorescence microscopy; type: functional, cell-based
[11] = system: MGC-803; assay: Induction of apoptosis in human MGC803 cells at 1 uM after 12 hrs by Annexin V-FITC staining based flow cytometry; type: functional
[12] = system: MGC-803; assay: Induction of apoptosis in human MGC803 cells at 1 uM after 6 hrs by Annexin V-FITC staining based flow cytometry; type: functional
[13] = system: MGC-803; assay: Induction of apoptosis in human MGC803 cells at 5 uM after 6 hrs by Annexin V-FITC staining based flow cytometry; type: functional
[14] = system: MGC-803; assay: Induction of apoptosis in human MGC803 cells at 5 uM after 24 hrs by Annexin V-FITC staining based flow cytometry; type: functional
[15] = system: MGC-803; assay: Induction of apoptosis in human MGC803 cells at 10 uM after 24 hrs by Annexin V-FITC staining based flow cytometry; type: functional
[16] = system: MGC-803; assay: Induction of apoptosis in human MGC803 cells at 5 uM after 12 hrs by Annexin V-FITC staining based flow cytometry; type: functional
[17] = system: MGC-803; assay: Induction of apoptosis in human MGC803 cells at 1 uM after 24 hrs by Annexin V-FITC staining based flow cytometry; type: functional
[18] = system: Bcap37; assay: Growth inhibition of human Bcap37 cells after 72 hrs by MTT assay; type: functional, cell-based; conditions: Bcap37, 72 h
[19] = system: Bcap37; assay: Growth inhibition of human Bcap37 cells at 10 uM after 72 hrs by MTT assay; type: functional; conditions: Bcap37, 72 h, read-out: GI
[20] = Growth inhibition of human PC3 cells at 10 uM after 72 hrs by MTT assay; type: functional; conditions: PC-3, 72 h, read-out: GI
[21] = system: MGC-803; assay: Growth inhibition of human MGC803 cells after 72 hrs by MTT assay; type: functional, cell-based; conditions: MGC-803, 72 h
[22] = Growth inhibition of human PC3 cells after 72 hrs by MTT assay; type: functional, cell-based; conditions: PC-3, 72 h
[23] = system: MGC-803; assay: Growth inhibition of human MGC803 cells at 10 uM after 72 hrs by MTT assay; type: functional; conditions: MGC-803, 72 h, read-out: GI
[24] = system: Bcap37; assay: Induction of apoptosis in human Bcap37 cells assessed as condensed chromatin at 1 to 10 uM after 12 hrs by Hoechst 33258 staining based fluorescence microscopy; type: functional, cell-based
[25] = system: MGC-803; assay: Induction of apoptosis in human MGC803 cells assessed as chromatin condensation at 1 to 10 uM after 12 hrs by AO/EB staining based fluorescence microscopy; type: functional, cell-based
[26] = system: Bcap37; assay: Induction of apoptosis in human Bcap37 cells assessed as cell volume reduction at 1 to 10 uM after 12 hrs by AO/EB staining based fluorescence microscopy; type: functional
[27] = system: MGC-803; assay: Induction of apoptosis in human MGC803 cells assessed as nuclear fragmentation at 1 to 10 uM after 12 hrs by AO/EB staining based fluorescence microscopy; type: functional, cell-based
[28] = system: Bcap37; assay: Induction of apoptosis in human Bcap37 cells assessed as nuclear fragmentation at 1 to 10 uM after 12 hrs by AO/EB staining based fluorescence microscopy; type: functional, cell-based
[29] = system: MGC-803; assay: Induction of apoptosis in human MGC803 cells assessed as cell volume reduction at 1 to 10 uM after 12 hrs by AO/EB staining based fluorescence microscopy; type: functional
[30] = system: MGC-803; assay: Induction of apoptosis in human MGC803 cells assessed as condensed chromatin at 1 to 10 uM after 12 hrs by Hoechst 33258 staining based fluorescence microscopy; type: functional, cell-based
[31] = system: Bcap37; assay: Induction of apoptosis in human Bcap37 cells assessed as chromatin condensation at 1 to 10 uM after 12 hrs by AO/EB staining based fluorescence microscopy; type: functional, cell-based

| Compound | IC50 [18] [µM] | inhibition of growth at 10 µM [19] [%] | inhibition of growth at 10 µM [20] [%] | IC50 [21] [µM] | IC50 [22] [µM] | inhibition of growth at 10 µM [23] [%] | further results |
| --- | --- | --- | --- | --- | --- | --- | --- |
| CC[C@@]1(O)C(=O)OCc2c1cc1n(c2=O)Cc2cc3cc(O)ccc3nc2-1 [HYDROXYCAMPTOTHECIN] |  |  |  |  |  |  | Activity [1]: Active; Activity [2]: 3.5%; Activity [3]: Active; Activity [4]: Active; Activity [5]: Active; Activity [6]: Active; Activity [7]: Active; Activity [8]: 9.1%; Activity [9]: Active; Activity [10]: Active; Activity [11]: 2.1%; Activity [12]: 1.3%; Activity [13]: 1.8%; Activity [14]: 7.3%; Activity [15]: 18.6%; Activity [16]: 6%; Activity [17]: 3.8% |
| O=C(/C=C/c1ccc(Oc2ncnc3ccc(Cl)cc23)cc1)/C=C/c1c(Cl)cccc1Cl | 13.8 | 62.5 | 67.5 | 6.77 | 9.3 | 61.7 |  |
| O=C(/C=C/c1cc([N+](=O)[O-])ccc1Cl)/C=C/c1ccccc1Oc1ncnc2ccc(Cl)cc12 | 8.47 | 78.4 | 86.9 | 1.96 | 2.51 | 91.6 | Activity [24]: Active; Activity [25]: Active; Activity [1]: Active; Activity [2]: 10.3%; Activity [3]: Active; Activity [26]: Active; Activity [8]: 15.7%; Activity [27]: Active; Activity [11]: 3.5%; Activity [12]: 2%; Activity [13]: 6.7%; Activity [28]: Active; Activity [14]: 16.8%; Activity [29]: Active; Activity [30]: Active; Activity [31]: Active; Activity [15]: 31.7%; Activity [16]: 9.2%; Activity [17]: 5.2% |
| O=C(/C=C/c1ccc(Cl)c(Cl)c1)/C=C/c1ccccc1Oc1ncnc2ccc(Cl)cc12 | 21.2 | 38.2 | 42.2 | 16.1 | 18.3 | 56.7 |  |
| O=C(/C=C/c1ccccc1Oc1ncnc2ccc(Cl)cc12)/C=C/c1cccc(Cl)c1Cl | 11.5 | 70.2 | 73.8 | 5.21 | 8.35 | 76.5 |  |
| COc1cccc2c1C(=O)c1c(O)c3c(c(O)c1C2=O)C[C@@](O)(C(=O)CO)C[C@@H]3O[C@H]1C[C@H](N)[C@H](O)[C@H](C)O1 [DOXORUBICIN HYDROCHLORIDE] | 0.94 | 96.2 | 93.5 | 0.71 | 0.8 | 95.8 |  |
| O=C(/C=C/c1ccc(Oc2ncnc3ccc(Cl)cc23)cc1)/C=C/c1cc([N+](=O)[O-])ccc1Cl | 9.84 | 72.5 | 76.8 | 2.15 | 3.15 | 86.7 | Activity [24]: Active; Activity [25]: Active; Activity [1]: Active; Activity [2]: 4.2%; Activity [3]: Active; Activity [26]: Active; Activity [8]: 8.9%; Activity [27]: Active; Activity [11]: 1.8%; Activity [12]: 1.2%; Activity [13]: 1.7%; Activity [28]: Active; Activity [14]: 9.8%; Activity [29]: Active; Activity [30]: Active; Activity [31]: Active; Activity [15]: 21.9%; Activity [16]: 5.6%; Activity [17]: 4.3% |
| O=C(/C=C/c1ccc(Oc2ncnc3ccc(Cl)cc23)cc1)/C=C/c1cccc(Cl)c1Cl | 14.3 | 61.7 | 67.4 | 7.3 | 10.2 | 68.5 |  |
| O=C(/C=C/c1ccccc1Oc1ncnc2ccc(Cl)cc12)/C=C/c1c(Cl)cccc1Cl | 11.3 | 67.1 | 70.1 | 5.17 | 7.98 | 69.3 |  |
| O=C(/C=C/c1ccc(Cl)c([N+](=O)[O-])c1)/C=C/c1ccccc1Oc1ncnc2ccc(Cl)cc12 | 12.3 | 52.5 | 62.5 | 5.32 | 9.76 | 70.2 |  |
| O=C(/C=C/c1ccc(Oc2ncnc3ccc(Cl)cc23)cc1)/C=C/c1ccc(Cl)c([N+](=O)[O-])c1 | 16.2 | 56.3 | 56.3 | 7.19 | 11.8 | 66.2 |  |
| O=C(/C=C/c1ccc(Oc2ncnc3ccc(Cl)cc23)cc1)/C=C/c1ccc(Cl)c(Cl)c1 | 27.9 | 34.5 | 33.5 | 16.9 | 18.8 | 50.5 |  |
